Results reported in patent US20050169914A1, “Novel functions for decay accelerating factor (DAF) in inflammation” (priority 2003, published 2005).
Where no end group is shown, it is not given here. The star is where a group is joined. Biotin = O=C1N[C@H]2[C@H](CS[C@H]2CCCCC(=O)*)N1

Experiments:
surface expressed DAF = assay: DAF suppression in Caco2 cells (immunoprecipitation of surface biotinylated protein); assay type: cell-based, human; details: Caco2, relative to oligonucleotide controls, n=3
Experimental: DAF suppression studies. Caco2 cells were chosen for these experiments because they are more easily transfected than T84 cells. Confluent Caco2 monolayers were dislodged from T175 flasks with trypsin. Cells were washed once in serum-free DMEM. To 100 μl serum free media, 10 μl DAF siRNA ribonucleotide (20 μM each of sense 5′-[…]dTdT-3′ (SEQ ID NO: 31) and antisense 3′-dTd[…]-5′ (SEQ ID NO: 32), synthesized by Xeragon, Inc., Germantown, Md.) or 10 μl phosphorothioate derivatives of DAF antisense oligonucleotide (20 μM; 5′-[…]-3′ (SEQ ID NO: 33), synthesized by Oligo's Etc., Wilsonville, Oreg.) was added. In both cases, a control oligonucleotide (5′-ATG GAG GGC GCC GGC-3′, SEQ ID NO: 34) was used in parallel. To these solutions 10 μl Superfect transfection reagent (Qiagen, Valencia, Calif.) was added. The tubes were vortexed and incubated at room temperature for 10 min to allow transfection complexes formation. Following this incubation, 400 μl of serum containing media was added to the complexes, followed by 800 μl of cell suspension. […]
As a third approach, antisense oligonucleotides and siRNA technologies were utilized to diminish surface expressed DAF and examined the kinetics of PMN migration across such monolayers of epithelia. […] In panels B and C, the influence of siRNA (diamonds), antisense oligonucleotide (squares) on the kinetics of transmigration was assessed. […]

[1] = test system: PMN transmigration across Caco2 monolayers; assay: Kinetic PMN transmigration across DAF-depleted Caco2 monolayers; assay type: cell-based, human
Experimental: Transmigration assay. PMN transmigration assays were performed as previously described (Nicholson-Weller et al., 1994, J. Lab. Clin. Med. 123: 485-91). All epithelial experiments were performed in the physiologically-relevant basolateral-to-apical direction (i.e. inverted monolayers), unless otherwise indicated, and all HMVEC transmigration studies were performed in the apical-to-basolateral direction. Briefly, PMN (1×10^6) were added to the upper chambers of transwell inserts in which T84, KB or Caco2 cell monolayers, as indicated, were plated on the opposing side. […] Transmigrated PMN were quantified by assaying for the PMN azurophilic marker myeloperoxidase (MPO), as previously described (Lisanti et al., 1990, J. Memb. Biol. 113: 155-167). […] An aliquot of sample (70 μl) was added to an equal volume of ABTS solution (1 mM ABTS (2.2′-Azino-bis(3-ethylbenzo-thiazoline-6-sulfonic acid), 0.03% H2O2, 100 mM sodium citrate buffer; pH 4.2) in a 96-well plate. The resulting color was quantitated on a plate reader at 405 nm. For kinetic transmigration and post-transmigration adhesion assays, monolayers were removed at the desired time point and placed in a new 24-well plate with HBSS and spun at 50×g for 5 min to dislodge PMN adherent to the monolayer (Liu et al., 2001, J. Biol. Chem. 276: 40156-66). PMN were quantified by MPO assay as stated above. […]

[2] = test system: PMN transmigration across epithelial monolayer; assay: Kinetic PMN transmigration assay with DAF mimetic peptides; assay type: cell-based, human; details: for rank order of potency in kinetic PMN transmigration assay: compared to no peptide controls
Experimental: Transmigration assay. PMN transmigration assays were performed as previously described (Nicholson-Weller et al., 1994, J. Lab. Clin. Med. 123: 485-91). All epithelial experiments were performed in the physiologically-relevant basolateral-to-apical direction (i.e. inverted monolayers), unless otherwise indicated, and all HMVEC transmigration studies were performed in the apical-to-basolateral direction. Briefly, PMN (1×10^6) were added to the upper chambers of transwell inserts in which T84, KB or Caco2 cell monolayers, as indicated, were plated on the opposing side. A chemotactic gradient was established by adding n-formyl-methionyl-leucyl-phenylalanine (fMLP) to the lower chambers (1 μM for Caco2 and T84 epithelia and 10 nM for KB cells and HMVEC). PMN transmigration was carried out at 37° C. for 1 hour with KB and HMVEC monolayers and 2 hrs for T84 monolayers. Transmigrated PMN were quantified by assaying for the PMN azurophilic marker myeloperoxidase (MPO), as previously described (Lisanti et al., 1990, J. Memb. Biol. 113: 155-167). Briefly, transmigrated PMN were lysed by the addition of Triton X-100 to a final concentration 0.5%. The samples were acidified with citrate buffer (final concentration 100 mM; pH 4.2). An aliquot of sample (70 μl) was added to an equal volume of ABTS solution (1 mM ABTS (2.2′-Azino-bis(3-ethylbenzo-thiazoline-6-sulfonic acid), 0.03% H2O2, 100 mM sodium citrate buffer; pH 4.2) in a 96-well plate. The resulting color was quantitated on a plate reader at 405 nm. For kinetic transmigration and post-transmigration adhesion assays, monolayers were removed at the desired time point and placed in a new 24-well plate with HBSS and spun at 50×g for 5 min to dislodge PMN adherent to the monolayer (Liu et al., 2001, J. Biol. Chem. 276: 40156-66). PMN were quantified by MPO assay as stated above. Where indicated, polyclonal DAF antisera (a kind gift from Dr. B. Paul Morgan, University of Wales) or control polyclonal platelet-endothelial cell adhesion (PE-CAM, a kind gift from Dr. Joyce Bischoff, Children's Hospital and Harvard Medical School) antisera were used to assess transmigration.
Phage panning of OE-1. The OE-1 binding epitope was analyzed using phage display (Burritt et al., 1998, J. Biol. Chem. 273:24847-52). Briefly, sepharose-coupled OE-1 was incubated with 20-μL aliquots of the random 9-mer LL9 phage library (˜5×10^10 phage) in 1 mL HBSS containing 0.1% bovine serum albumin (phage buffer) for 2 hours at 4° C. or for 1 hour at 20° C. in a 1.5-ml microcentrifuge tube as described previously (Mazzucchelli et al., 1999, Blood 93: 1738-48). Antibody complexes were then washed five times with phage buffer and bound phage were eluted for 5 minutes in 2 mL of 0.1M glycine (pH 2.2) followed by addition of phage buffer containing 0.5% Tween 20 to the remaining cell pellet. After neutralization with Tris buffer pH 8.1, the titer of phage was determined in each fraction by plaque assay according to standard procedures. Phage elutes were then amplified in “starved” K91 E. coli on solid LB agar containing 75 μg/mL kanamycin, purified by precipitation with polyethylene glycol, and resuspended in 600 μL NaCl/HEPES buffer. An aliquot (20 μL) of purified phage was subsequently re-applied to a new aliquot of sepharose-coupled OE-1 for a total of three affinity purification and two amplification steps. Individual phage clones were then isolated, amplified, and the random peptide sequences were deduced after sequencing the unique nucleotide region of the pIII protein. As a control for OE-1-specific selection, parallel phage affinity purification steps were carried out in a 1.5-mL microcentrifuge tube in the absence of OE-1, and a sample of the recovered phage was analyzed by sequencing of the DNA insert. […]

surface of intact PMN = assay: Binding of biotinylated peptide to intact PMN (rhodamine-streptavidin fluorescence); parameters: species or system human; details: peptide 10 μg/ml, 4° C., 1 hr
Experimental: In subsets of experiments, peptides were biotinylated (sulfo-NHS-Biotin, Pierce, Rockford, Ill.), purified by reversed phase HPLC, and tested for binding to PMN. Briefly, PMN (10^7 PMN in 1 ml) were incubated with biotinylated peptide DAF peptide or control peptide (each at 10 μg/ml) at 4° C. for 1 hr. PMN were washed three times in HBSS, and incubated with rhodamine-labeled steptavidin (Roche Diagnostics, Indianapolis, Ind.). Samples were aliquoted on a 96 well plate and fluorescence intensity (excitation, 550 nm; emission, 580 nm), expressed as relative fluorescence units (RFU) was measured on a fluorescent plate reader (Cytofluor™2300, Millipore Inc., Bedford, Mass.).

[3] = test system: OE-1 mAb binding to intact epithelial cell surface protein; assay: Peptide blocking of OE-1 binding, cell surface ELISA on intact T84 cells; details: concentration-dependent
[4] = test system: OE-1 mAb binding to denatured protein; assay: Peptide blocking of OE-1 binding, western blot of T84 epithelial lysates; details: concentration-dependent
Experimental: Immunoblotting experiments. Indicated cells were grown to confluency on 100 mm plastic Petri dishes. The monolayers were lysed for 10 min in 1 ml lysis buffer (150 mM NaCl, 25 mM Tris, pH 8.0, 5 mM EDTA, 2% n-octylglucoside, and 10% mammalian tissue protease inhibitor cocktail; Sigma, St. Louis, Mo.), scraped and collected into microfuge tubes. After spinning at 14,000×g to remove cell debris, the pellet was discarded. Proteins were solublized in non-reducing Laemmli sample buffer and heated to 100° C. for 5 minutes. Samples were resolved on a 10% polyacrylamide gel and transferred to nitrocellulose membranes. The membranes were blocked 1 hr at room temperature in PBS supplemented with 0.2% Tween-20 (PBS-T) and 4% BSA. […] The wash was repeated and proteins were detected by enhanced chemiluminescence.
Phage panning of OE-1. The OE-1 binding epitope was analyzed using phage display (Burritt et al., 1998, J. Biol. Chem. 273:24847-52). […] After neutralization with Tris buffer pH 8.1, the titer of phage was determined in each fraction by plaque assay according to standard procedures. […] As a control for OE-1-specific selection, parallel phage affinity purification steps were carried out in a 1.5-mL microcentrifuge tube in the absence of OE-1, and a sample of the recovered phage was analyzed by sequencing of the DNA insert. […]

Substance: siRNA: DAF siRNA ribonucleotide, sense 5′-AAUUCCUGGCGAGAAGGACUCdTdT-3′, antisense 3′-dTdTUUAAGGACCGCUCUUCCUGAG-5′ (sense AAUUCCUGGCGAGAAGGACUCNN; antisense NNUUAAGGACCGCUCUUCCUGAG; chemistry not fully specified; one strand is listed 3' to 5')
- decrease in surface expressed DAF (surface expressed DAF): 63±12%
- PMN transmigration across treated cells ([1]; Caco2, relative to mock or oligonucleotide control, p<0.025): significantly diminished
- apical PMN in DAF-depleted epithelia ([1]; Caco2, p<0.05 by ANOVA): significant increase over time

Substance: EVEHWARSG [Peptide 3]
- rank order of potency in kinetic PMN transmigration assay ([2]; 1 mM final concentration): Wild-type>Peptide 2=Peptide 1>Peptide 3

Substance: AVAHWYRSG [Peptide 1]
- rank order of potency in kinetic PMN transmigration assay ([2]; 1 mM final concentration): Wild-type>Peptide 2=Peptide 1>Peptide 3

Substance: EVEHWYASG [Peptide 4]
- effect on PMN transmigration relative to no peptide controls ([2]; 1 mM final concentration): appeared to enhance PMN transmigration

Substance: EVEHAYRSG [Peptide 2]
- rank order of potency in kinetic PMN transmigration assay ([2]; 1 mM final concentration): Wild-type>Peptide 2=Peptide 1>Peptide 3

Substance: Biotin-EVEHWYRSG
- fluorescence intensity (binding to surface of intact PMN) (surface of intact PMN): 2,188±383 RFU

Substance: SPLAQAVRSSSR [scrambled peptide, scrambled control peptide, reference compound]
- blocking of OE-1 binding to intact epithelial cell surface protein [3]: but not a scrambled peptide

Substance: EVEHWYRSG
- blocking of OE-1 binding to denatured protein [4]: blocked OE-1 binding
- blocking of OE-1 binding to intact epithelial cell surface protein [3]: blocked OE-1 binding
- rank order of potency in kinetic PMN transmigration assay ([2]; 1 mM final concentration): Wild-type>Peptide 2=Peptide 1>Peptide 3
- apical accumulation of PMN ([2]; PMN and epithelial pre-exposure to increasing peptide concentrations, p<0.025): increased apical accumulation of PMN
- PMN transmigration ([2]; PMN and epithelial pre-exposure to increasing peptide concentrations, p<0.05): diminished PMN transmigration
